In ChEMBL document CHEMBL4422633, “Antioxidant-Inspired Drug Discovery: Antitumor Metabolite Is Formed in Situ from a Hydroxycinnamic Acid Derivative upon Free-Radical Scavenging” (J Med Chem, 2019):
pIC50: −log10 of the molar value. The source made the active and inactive calls. No cut-off for these calls is given here.

Tests used:
Homo sapiens [1] = organism: Homo sapiens; assay: Induction of DNA damage response in human NCI-H460/R cells transfected with MDR assessed as increase in H2AX expression at 10 uM after 24 hrs by alexa fluor 488-staining based flow cytometry; type: functional, cell-based
[2] = Cytotoxicity against mouse L5178 cells assessed as reduction in cell viability after 72 hrs by MTT assay; type: functional, cell-based; conditions: L5178, 72 h
[3] = Cytotoxicity against mouse L5178B1 cells transfected with pHa MDR1/A retrovirus assessed as reduction in cell viability after 72 hrs by MTT assay; type: functional, cell-based; conditions: MDR1, 72 h
[4] = Cytotoxicity against human NCI-H460/R cells transfected with MDR assessed as reduction in cell viability after 72 hrs by MTT assay; type: functional, cell-based; conditions: NCI-H460, 72 h
A549 [5] = assay: Cytotoxicity against human A549 cells assessed as reduction in cell viability after 72 hrs by MTT assay; type: functional, cell-based; conditions: A549, 72 h
NCI-H661 [6] = assay: Cytotoxicity against human NCI-H661 cells assessed as reduction in cell viability after 72 hrs by MTT assay; type: functional, cell-based; conditions: NCI-H661, 72 h
HaCaT [7] = assay: Cytotoxicity against human HaCaT cells assessed as reduction in cell viability after 72 hrs by MTT assay; type: cell-based
MCF7 = assay: Cytotoxicity against human MCF7 cells assessed as reduction in cell viability after 72 hrs by MTT assay; type: functional, cell-based; conditions: MCF7, 72 h
SiHa = assay: Cytotoxicity against human SiHa cells assessed as reduction in cell viability after 72 hrs by MTT assay; type: functional, cell-based
NCI-H460 [8] = assay: Induction of apoptosis in human NCI-H460 cells assessed as viable cells at 10 uM after 24 hrs by Annexin V/propidium iodide-staining based flow cytometry (reference value: 96.49 +/- 0.96%); type: functional; conditions: NCI-H460, 24 h, read-out: Activity
A549 [9] = assay: Induction of apoptosis in human A549 cells assessed as viable cells at 10 uM after 24 hrs by Annexin V/propidium iodide-staining based flow cytometry (reference value: 96.45 +/- 2.89%); type: functional; conditions: A549, 24 h, read-out: Activity
[10] = Induction of apoptosis in human HaCaT cells assessed as viable cells at 10 uM after 24 hrs by Annexin V/propidium iodide-staining based flow cytometry (reference value: 95.63 +/- 3.83%); type: cell-based; conditions: read-out: Activity
NCI-H460 [11] = assay: Induction of apoptosis in human NCI-H460 cells assessed as early apoptotic cells at 10 uM after 24 hrs by Annexin V/propidium iodide-staining based flow cytometry (reference value: 0.45 +/- 0.01%); type: functional
A549 [12] = assay: Induction of apoptosis in human A549 cells assessed as early apoptotic cells at 10 uM after 24 hrs by Annexin V/propidium iodide-staining based flow cytometry (reference value: 0.48 +/- 0.01%); type: functional
HaCaT [13] = assay: Induction of apoptosis in human HaCaT cells assessed as early apoptotic cells at 10 uM after 24 hrs by Annexin V/propidium iodide-staining based flow cytometry (reference value: 0.23 +/- 0.01%); type: cell-based
NCI-H460 [14] = assay: Induction of apoptosis in human NCI-H460 cells assessed as late apoptotic cells at 10 uM after 24 hrs by Annexin V/propidium iodide-staining based flow cytometry (reference value: 0.93 +/- 0.04%); type: functional
[15] = Induction of apoptosis in human NCI-H460/R cells transfected with MDR assessed as late apoptotic cells at 10 uM after 24 hrs by Annexin V/propidium iodide-staining based flow cytometry (reference value: 0.84 +/- 0.01%); type: functional
A549 [16] = assay: Induction of apoptosis in human A549 cells assessed as late apoptotic cells at 10 uM after 24 hrs by Annexin V/propidium iodide-staining based flow cytometry (reference value: 1.54 +/- 0.03%); type: functional
NCI-H661 [17] = assay: Induction of apoptosis in human NCI-H661 cells assessed as late apoptotic cells at 10 uM after 24 hrs by Annexin V/propidium iodide-staining based flow cytometry (reference value: 0.95 +/- 0.03%); type: functional
HaCaT [18] = assay: Induction of apoptosis in human HaCaT cells assessed as late apoptotic cells at 10 uM after 24 hrs by Annexin V/propidium iodide-staining based flow cytometry (reference value: 2.26 +/- 0.09%); type: cell-based
NCI-H460 [19] = assay: Induction of apoptosis in human NCI-H460 cells assessed as necrotic cells at 10 uM after 24 hrs by Annexin V/propidium iodide-staining based flow cytometry (reference value: 2.13 +/- 0.02%); type: functional
[20] = Induction of apoptosis in human NCI-H460/R cells transfected with MDR assessed as necrotic cells at 10 uM after 24 hrs by Annexin V/propidium iodide-staining based flow cytometry (reference value: 3.17 +/- 0.13%); type: functional
A549 [21] = assay: Induction of apoptosis in human A549 cells assessed as necrotic cells at 10 uM after 24 hrs by Annexin V/propidium iodide-staining based flow cytometry (reference value: 1.52 +/- 0.05%); type: functional
NCI-H661 [22] = assay: Induction of apoptosis in human NCI-H661 cells assessed as necrotic cells at 10 uM after 24 hrs by Annexin V/propidium iodide-staining based flow cytometry (reference value: 2.58 +/- 0.05%); type: functional
HaCaT [23] = assay: Induction of apoptosis in human HaCaT cells assessed as necrotic cells at 10 uM after 24 hrs by Annexin V/propidium iodide-staining based flow cytometry (reference value: 1.88 +/- 0.02%); type: cell-based
NCI-H460 [24] = assay: Induction of DNA damage response in human NCI-H460 cells assessed as increase in H2AX expression at 10 uM after 24 hrs by alexa fluor 488-staining based flow cytometry; type: functional, cell-based
HaCaT [25] = assay: Induction of DNA damage response in human HaCaT cells assessed as increase in H2AX expression at 10 uM after 24 hrs by alexa fluor 488-staining based flow cytometry; type: cell-based
NCI-H460 [26] = assay: Induction of ROS generation in human NCI-H460 cells assessed as increase DHE positive cells at 10 uM after 24 hrs by DHE-staining based flow cytometry; type: functional, cell-based
A549 [27] = assay: Induction of ROS generation in human A549 cells assessed as increase DHE positive cells at 10 uM after 24 hrs by DHE-staining based flow cytometry; type: functional, cell-based
Homo sapiens [28] = organism: Homo sapiens; assay: Induction of ROS generation in human NCI-H460/R cells transfected with MDR assessed as increase DHE positive cells at 10 uM after 24 hrs by DHE-staining based flow cytometry; type: functional, cell-based
HaCaT [29] = assay: Induction of ROS generation in human HaCaT cells assessed as increase DHE positive cells at 10 uM after 24 hrs by DHE-staining based flow cytometry; type: cell-based
NCI-H460 [30] = assay: Induction of DNA damage response in human NCI-H460 cells transfected with MDR assessed as increase in H2AX expression at 10 uM after 24 hrs by alexa fluor 488-staining based flow cytometry; type: functional, cell-based
NCI-H661 [31] = assay: Induction of DNA damage response in human NCI-H661 cells assessed as increase in H2AX expression at 10 uM after 24 hrs by alexa fluor 488-staining based flow cytometry; type: functional, cell-based
[32] = target: Serine/threonine-protein kinase Chk2 (Homo sapiens) (UniProt O96017); assay: Induction of CHK2 phosphorylation at T68 in human MCF7 cells at 10 uM pretreated for 30 mins followed by 10 J/m'2 irradiation and measured after 1 hr by Western blot analysis; type: cell-based
Sequence of Serine/threonine-protein kinase Chk2 (Homo sapiens) (O96017 whole entry): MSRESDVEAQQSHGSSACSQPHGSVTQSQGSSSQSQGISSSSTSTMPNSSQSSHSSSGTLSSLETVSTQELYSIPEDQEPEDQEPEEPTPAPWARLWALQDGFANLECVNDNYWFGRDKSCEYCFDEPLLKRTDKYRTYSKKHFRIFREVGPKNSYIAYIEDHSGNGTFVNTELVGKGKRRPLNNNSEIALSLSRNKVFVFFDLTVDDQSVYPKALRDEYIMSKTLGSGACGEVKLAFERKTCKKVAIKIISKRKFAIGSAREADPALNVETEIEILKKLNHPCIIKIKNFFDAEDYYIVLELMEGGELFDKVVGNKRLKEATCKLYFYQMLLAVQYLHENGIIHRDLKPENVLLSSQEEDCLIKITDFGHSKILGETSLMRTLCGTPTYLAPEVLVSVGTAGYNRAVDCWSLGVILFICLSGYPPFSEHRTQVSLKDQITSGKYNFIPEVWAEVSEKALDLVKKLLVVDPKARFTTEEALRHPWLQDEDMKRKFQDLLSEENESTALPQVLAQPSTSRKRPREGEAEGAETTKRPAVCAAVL

With `COC(=O)/C=C/C1(O)C=CC(=O)C=C1` the Activity (Homo sapiens [1]) was “Active”, the pIC50 [2] was 6.34 and the pIC50 [3] was 6.21. The pIC50 [4] was 5.69, the pIC50 (A549 [5]) was 5.36 and the pIC50 (NCI-H661 [6]) was 5.84. For the same compound, the pIC50 (HaCaT [7]) was 5.39, the pIC50 (MCF7) was 5.21 and the pIC50 (SiHa) was 5.05. The viability at 10 µM (NCI-H460 [8]) was 89.1%, the viability at 10 µM (A549 [9]) was 92.8% and the viability at 24 h, 10 µM [10] was 91.5%. It also gave an Activity (NCI-H460 [11]) of 0.21%, an Activity (A549 [12]) of 0.72% and an Activity (HaCaT [13]) of 0.44%. The Activity (NCI-H460 [14]) was 3.35%, the Activity [15] was 2.34% and the Activity (A549 [16]) was 3.93%. The Activity (NCI-H661 [17]) was 9.57%, the Activity (HaCaT [18]) was 2.85% and the Activity (NCI-H460 [19]) was 7.31%. For the same compound, the Activity [20] was 7.51%, the Activity (A549 [21]) was 2.57% and the Activity (NCI-H661 [22]) was 44.82%. The Activity (HaCaT [23]) was 5.21%, the Activity (NCI-H460 [24]) was “Active” and the Activity (HaCaT [25]) was “Non-Toxic”. The Activity (NCI-H460 [26]) was “Active”, the Activity (A549 [27]) was “Active” and the Activity (Homo sapiens [28]) was “inactive”. For the same compound, the Activity (HaCaT [29]) was “Non-Toxic”, the Activity (NCI-H460 [30]) was “Active” and the Activity (NCI-H661 [31]) was “Active”. For the same compound, the Activity [32] was “Active”.
